# Reference: article PMC5430895 (Scientific Reports, 2017)
# Experiments:
# hOCT1 [1] = target: T1, hOCT1 (Homo sapiens, UniProt O15245); assay: Saracatinib uptake in hOCT1-overexpressing HEK293 cells (HPLC-UV); settings: hOCT1-HEK293, 10 µM saracatinib, 10 min, difference of accumulation at 4 °C and 37 °C
# T1 sequence (O15245 1-554): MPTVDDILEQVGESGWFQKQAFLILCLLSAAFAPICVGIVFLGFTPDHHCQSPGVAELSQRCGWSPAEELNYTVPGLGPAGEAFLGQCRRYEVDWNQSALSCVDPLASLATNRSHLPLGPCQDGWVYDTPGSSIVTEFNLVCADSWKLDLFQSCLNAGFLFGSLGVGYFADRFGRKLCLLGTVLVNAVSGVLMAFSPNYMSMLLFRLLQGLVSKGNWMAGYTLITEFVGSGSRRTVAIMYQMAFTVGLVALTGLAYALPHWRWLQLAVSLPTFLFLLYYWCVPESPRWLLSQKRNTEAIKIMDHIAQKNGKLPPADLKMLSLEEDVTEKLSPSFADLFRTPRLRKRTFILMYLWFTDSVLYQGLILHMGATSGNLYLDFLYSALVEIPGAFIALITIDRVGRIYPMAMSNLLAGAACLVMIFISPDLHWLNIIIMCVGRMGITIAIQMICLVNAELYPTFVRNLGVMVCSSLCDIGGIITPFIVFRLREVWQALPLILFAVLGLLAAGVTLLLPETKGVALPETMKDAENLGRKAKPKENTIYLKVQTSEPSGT
# hOCT1 [2] = target: T1, hOCT1; assay: Inhibition of ASP+ uptake in hOCT1-HEK293 cells (apparent affinity); type: cell-based; parameters: expressed in transfected cells; host or cells: HEK293; settings: hOCT1-HEK293, ASP+ 1 µM
# hOCTN1 [3] = target: T2, hOCTN1 (Homo sapiens, UniProt Q9H015); assay: Saracatinib uptake in hOCTN1-overexpressing HEK293 cells (HPLC-UV)
# T2 sequence (Q9H015 1-551): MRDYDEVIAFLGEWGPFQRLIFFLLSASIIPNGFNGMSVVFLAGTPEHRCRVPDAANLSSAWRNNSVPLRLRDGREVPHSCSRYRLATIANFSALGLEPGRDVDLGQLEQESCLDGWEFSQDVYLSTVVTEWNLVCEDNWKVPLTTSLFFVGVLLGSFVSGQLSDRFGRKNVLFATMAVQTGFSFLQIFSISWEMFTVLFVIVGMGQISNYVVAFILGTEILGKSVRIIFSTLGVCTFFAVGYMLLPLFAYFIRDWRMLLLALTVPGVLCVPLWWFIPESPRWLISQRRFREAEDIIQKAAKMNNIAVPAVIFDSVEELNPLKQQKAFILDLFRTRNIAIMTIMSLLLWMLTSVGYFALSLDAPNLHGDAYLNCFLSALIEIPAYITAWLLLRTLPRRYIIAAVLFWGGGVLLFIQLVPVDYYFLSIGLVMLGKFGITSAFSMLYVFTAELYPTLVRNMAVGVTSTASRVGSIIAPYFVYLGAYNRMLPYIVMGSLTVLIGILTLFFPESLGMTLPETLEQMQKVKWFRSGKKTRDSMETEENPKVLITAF
# Method: Twenty-four hours before starting experiments hOCTN1 expression was induced by 1 mg/l doxycycline (Sigma-Aldrich, Steinheim, Germany). Cells were grown at standard conditions. […] Cell number was evaluated with a CASEYTT cell counter (Roche Innovatis, Reutlingen, Germany).
# After incubation, cells were washed with ice-cold PBS and hypoosmotic lysis was induced with 0.1% formic acid. […] The mobile phase consisted of (A) acetonitrile with 0.1% formic acid and (B) 0.1% formic acid and was delivered at 0.3 ml/min in a gradient program. After delivering 100% B for 3 min, a linear gradient to 100% A was applied within 7 min and maintained for 5 min. Thereafter, in order to re-equilibrate the column, a simple isocratic elution step with 100% eluent B was applied for at least 6 min. […] Separation was carried out on an Accucore C18 column equipped with a C18 guard column. The data were acquired by ChromQuest 5.0 chromatography software.
# hOCT2 = target: T3, hOCT2 (Homo sapiens, UniProt O15244); assay: Inhibition of ASP+ uptake in hOCT2-HEK293 cells (apparent affinity); type: cell-based; parameters: expressed in transfected cells; host or cells: HEK293; settings: hOCT2-HEK293, ASP+ 1 µM
# T3 sequence (O15244 1-555): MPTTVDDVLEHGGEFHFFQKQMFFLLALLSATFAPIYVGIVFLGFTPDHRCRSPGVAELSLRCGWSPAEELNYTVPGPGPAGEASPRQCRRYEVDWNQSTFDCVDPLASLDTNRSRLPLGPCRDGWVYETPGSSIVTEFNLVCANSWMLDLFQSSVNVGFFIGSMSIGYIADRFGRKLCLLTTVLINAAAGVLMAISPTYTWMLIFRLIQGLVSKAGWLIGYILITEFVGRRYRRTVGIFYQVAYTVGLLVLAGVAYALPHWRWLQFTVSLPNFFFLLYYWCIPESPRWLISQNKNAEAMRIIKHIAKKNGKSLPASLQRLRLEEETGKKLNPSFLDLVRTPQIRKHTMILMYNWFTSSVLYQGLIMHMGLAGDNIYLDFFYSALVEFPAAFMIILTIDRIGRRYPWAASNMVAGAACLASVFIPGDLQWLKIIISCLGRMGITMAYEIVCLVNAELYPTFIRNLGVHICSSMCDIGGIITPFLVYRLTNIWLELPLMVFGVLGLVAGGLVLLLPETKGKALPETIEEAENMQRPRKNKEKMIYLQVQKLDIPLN
# WT-HEK293 cells = assay: Saracatinib uptake in WT-HEK293 cells (HPLC-UV); settings: WT-HEK293, 10 µM saracatinib, 10 min
# hOCT3 = target: T4, hOCT3 (Homo sapiens, UniProt O75751); assay: Saracatinib uptake in hOCT3-overexpressing HEK293 cells (HPLC-UV); settings: hOCT3-HEK293, 10 µM saracatinib, 10 min, difference of accumulation at 4 °C and 37 °C
# T4 sequence (O75751 1-556): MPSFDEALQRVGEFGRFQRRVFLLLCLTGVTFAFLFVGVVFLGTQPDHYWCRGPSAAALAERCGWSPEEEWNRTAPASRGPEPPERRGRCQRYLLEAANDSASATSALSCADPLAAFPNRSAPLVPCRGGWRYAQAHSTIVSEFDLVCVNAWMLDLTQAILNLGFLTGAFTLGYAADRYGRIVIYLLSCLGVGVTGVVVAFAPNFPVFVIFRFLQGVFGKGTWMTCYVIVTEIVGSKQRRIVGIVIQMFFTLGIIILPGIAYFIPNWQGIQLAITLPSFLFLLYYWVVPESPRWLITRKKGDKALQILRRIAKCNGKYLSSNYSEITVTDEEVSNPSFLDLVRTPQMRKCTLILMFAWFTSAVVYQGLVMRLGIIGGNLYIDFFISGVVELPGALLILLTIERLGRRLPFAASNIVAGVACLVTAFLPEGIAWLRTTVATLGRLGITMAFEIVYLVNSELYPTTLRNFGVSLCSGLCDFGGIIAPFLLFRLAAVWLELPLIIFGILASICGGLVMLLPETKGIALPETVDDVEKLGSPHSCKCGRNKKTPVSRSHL
# hOCTN1 [4] = target: T2, hOCTN1; assay: Saracatinib uptake in RASF after hOCTN1 siRNA knockdown; type: in vitro ADME; parameters: expressed in transfected cells; host or cells: HEK293, expression induced with 1 mg/l doxycycline; settings: RASF 24 h post-transfection with hOCTN1 siRNA
smiles,measurement,setting,value
"CN1CCN(CCOc2cc(OC3CCOCC3)c3c(Nc4c(Cl)ccc5c4OCO5)ncnc3c2)CC1 [saracatinib, N-(5-chloro-1,3-benzodioxol-4-yl)-7-[2-(4-methylpiperazin-1-yl)ethoxy]-5-(tetrahydro-2H-pyran-4-yloxy)quinazolin-4-amine]",saracatinib accumulation (specific uptake),hOCT1 [1],8.8 ± 0.9 nmol/mg protein
same,IC50,hOCT1 [2],57 µM
same,saracatinib accumulation (specific uptake),"hOCTN1 [3]; hOCTN1-HEK293, 10 µM saracatinib, 10 min, difference of accumulation at 4 °C and 37 °C",9.3 ± 1.6 nmol/mg protein
same,influence of extracellular pH on saracatinib uptake,hOCTN1 [3]; hOCTN1-HEK293 cells,pH dependent
same,time for which hOCTN1 mediated saracatinib accumulation is linear,"hOCTN1 [3]; hOCTN1-HEK293 cells, 10 µM saracatinib",at least 15 min
same,maximum saracatinib uptake (Vmax),"hOCTN1 [3]; hOCTN1-HEK293 cells, 10 min incubation",79.7 ± 5.2 nmol/mg protein
same,IC50,hOCT2,0.9 µM
same,saracatinib accumulation (specific uptake),WT-HEK293 cells,1.8 ± 0.5 nmol/mg protein
same,saracatinib accumulation (specific uptake),hOCT3,5.7 ± 0.1 nmol/mg protein
same,uptake of saracatinib,hOCTN1 [4],2.6 ± 0.8 nmol/mg protein
same,"uptake of saracatinib, % remaining versus scramble siRNA",hOCTN1 [4],26%
